Assay results taken from PubChem BioAssay (NCI).
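Compound exposure: 48 hours, 5 concentrations, 96-well plates. GI50 = concentration required for 50% inhibition of growth. TGI is the concentration that stops growth completely.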

Key:
Experiment in all cases: DTP human tumour cell line panel, 48 h
SNB-19 CNS = tested on: SNB-19 CNS
NCI-H226 lung = tested on: NCI-H226 lung
HS 578T breast = tested on: HS 578T breast
MDA-MB-435 = tested on: MDA-MB-435
SW-620 colon = tested on: SW-620 colon
COLO 205 colon = tested on: COLO 205 colon
SF-295 CNS = tested on: SF-295 CNS
MOLT-4 leukemia = tested on: MOLT-4 leukemia
SN12C renal = tested on: SN12C renal
UO-31 renal = tested on: UO-31 renal
M14 melanoma = tested on: M14 melanoma
OVCAR-8 ovarian = tested on: OVCAR-8 ovarian
MALME-3M melanoma = tested on: MALME-3M melanoma
HOP-62 NSCLC = tested on: HOP-62 NSCLC
SK-MEL-28 melanoma = tested on: SK-MEL-28 melanoma
EKVX NSCLC = tested on: EKVX NSCLC
NCI-H522 lung = tested on: NCI-H522 lung
TK-10 renal = tested on: TK-10 renal
CAKI-1 renal = tested on: CAKI-1 renal
U251 CNS = tested on: U251 CNS
HCT-15 colon = tested on: HCT-15 colon
DU-145 prostate = tested on: DU-145 prostate
SF-268 CNS = tested on: SF-268 CNS
BT-549 breast = tested on: BT-549 breast
NCI-H460 lung = tested on: NCI-H460 lung
KM12 colon = tested on: KM12 colon
NCI-H23 lung = tested on: NCI-H23 lung
MCF7 breast = tested on: MCF7 breast
OVCAR-5 ovarian = tested on: OVCAR-5 ovarian
OVCAR-4 ovarian = tested on: OVCAR-4 ovarian
HT29 colon = tested on: HT29 colon
RPMI-8226 leukemia = tested on: RPMI-8226 leukemia
UACC-62 melanoma = tested on: UACC-62 melanoma
PC-3 prostate = tested on: PC-3 prostate
NCI/ADR-RES ovarian = tested on: NCI/ADR-RES ovarian
HCT-116 colon = tested on: HCT-116 colon
HCC-2998 colon = tested on: HCC-2998 colon
SK-MEL-2 melanoma = tested on: SK-MEL-2 melanoma
T-47D breast = tested on: T-47D breast
CCRF-CEM leukemia = tested on: CCRF-CEM leukemia
SK-MEL-5 melanoma = tested on: SK-MEL-5 melanoma
MDA-MB-231 breast = tested on: MDA-MB-231 breast
SNB-75 CNS = tested on: SNB-75 CNS
SF-539 CNS = tested on: SF-539 CNS
HL-60(TB) leukemia = tested on: HL-60(TB) leukemia
SK-OV-3 ovarian = tested on: SK-OV-3 ovarian
A498 renal = tested on: A498 renal
A549 NSCLC = tested on: A549 NSCLC
786-0 renal = tested on: 786-0 renal
UACC-257 melanoma = tested on: UACC-257 melanoma
RXF 393 renal = tested on: RXF 393 renal
HOP-92 NSCLC = tested on: HOP-92 NSCLC
SR leukemia = tested on: SR leukemia
IGROV1 ovarian = tested on: IGROV1 ovarian
K-562 leukemia = tested on: K-562 leukemia
ACHN renal = tested on: ACHN renal

O=C(c1ccc(Oc2ccccc2)cc1Cl)c1c[nH]c2ncnc(N[C@@H]3CC[C@@H](CO)OC3)c12
GI50 (SNB-19 CNS): 1810 nM | TGI (SNB-19 CNS): 15300 nM | GI50 (NCI-H226 lung): 1470 nM | TGI (NCI-H226 lung): 23600 nM | GI50 (HS 578T breast): 1590 nM | TGI (HS 578T breast): 5010 nM | GI50 (MDA-MB-435): 109 nM | TGI (MDA-MB-435): 10800 nM | GI50 (SW-620 colon): 397 nM | TGI (SW-620 colon): 11600 nM | GI50 (COLO 205 colon): 31.1 nM | TGI (COLO 205 colon): 351 nM | GI50 (SF-295 CNS): 2450 nM | TGI (SF-295 CNS): 15300 nM | GI50 (MOLT-4 leukemia): 1510 nM | TGI (MOLT-4 leukemia): 8990 nM | GI50 (SN12C renal): 413 nM | TGI (SN12C renal): 11400 nM | GI50 (UO-31 renal): 479 nM | TGI (UO-31 renal): 5560 nM | GI50 (M14 melanoma): 21.3 nM | TGI (M14 melanoma): 222 nM | GI50 (OVCAR-8 ovarian): 1330 nM | TGI (OVCAR-8 ovarian): 11200 nM | GI50 (MALME-3M melanoma): 16.1 nM | TGI (MALME-3M melanoma): 74.5 nM | GI50 (HOP-62 NSCLC): 302 nM | TGI (HOP-62 NSCLC): 11000 nM | GI50 (SK-MEL-28 melanoma): 35 nM | TGI (SK-MEL-28 melanoma): 465 nM | GI50 (EKVX NSCLC): 641 nM | TGI (EKVX NSCLC): 9420 nM | GI50 (NCI-H522 lung): 437 nM | TGI (NCI-H522 lung): 5090 nM | GI50 (TK-10 renal): 231 nM | TGI (TK-10 renal): 1670 nM | GI50 (CAKI-1 renal): 398 nM | TGI (CAKI-1 renal): 5360 nM | GI50 (U251 CNS): 1200 nM | TGI (U251 CNS): 14100 nM | GI50 (HCT-15 colon): 885 nM | TGI (HCT-15 colon): 10800 nM | GI50 (DU-145 prostate): 688 nM | TGI (DU-145 prostate): 6960 nM | GI50 (SF-268 CNS): 1410 nM | TGI (SF-268 CNS): 16300 nM | GI50 (BT-549 breast): 1660 nM | TGI (BT-549 breast): 4170 nM | GI50 (NCI-H460 lung): 2510 nM | TGI (NCI-H460 lung): 10700 nM | GI50 (KM12 colon): 37.7 nM | TGI (KM12 colon): 2610 nM | GI50 (NCI-H23 lung): 703 nM | TGI (NCI-H23 lung): 13700 nM | GI50 (MCF7 breast): 1470 nM | TGI (MCF7 breast): 13000 nM | GI50 (OVCAR-5 ovarian): 255 nM | TGI (OVCAR-5 ovarian): 2750 nM | GI50 (OVCAR-4 ovarian): 5020 nM | TGI (OVCAR-4 ovarian): 23000 nM | GI50 (HT29 colon): 43.4 nM | TGI (HT29 colon): 1470 nM | GI50 (RPMI-8226 leukemia): 1760 nM | TGI (RPMI-8226 leukemia): 9530 nM | GI50 (UACC-62 melanoma): 20.9 nM | TGI (UACC-62 melanoma): 173 nM | GI50 (PC-3 prostate): 3160 nM | TGI (PC-3 prostate): 13500 nM | GI50 (NCI/ADR-RES ovarian): 2300 nM | TGI (NCI/ADR-RES ovarian): 10700 nM | GI50 (HCT-116 colon): 244 nM | TGI (HCT-116 colon): 1420 nM | GI50 (HCC-2998 colon): 199 nM | TGI (HCC-2998 colon): 5560 nM | GI50 (SK-MEL-2 melanoma): 229 nM | TGI (SK-MEL-2 melanoma): 876 nM | GI50 (T-47D breast): 908 nM | TGI (T-47D breast): 6830 nM | GI50 (CCRF-CEM leukemia): 3210 nM | TGI (CCRF-CEM leukemia): 20900 nM | GI50 (SK-MEL-5 melanoma): 771 nM | TGI (SK-MEL-5 melanoma): 3560 nM | GI50 (MDA-MB-231 breast): 320 nM | TGI (MDA-MB-231 breast): 1740 nM | GI50 (SNB-75 CNS): 1110 nM | TGI (SNB-75 CNS): 3270 nM | GI50 (SF-539 CNS): 1360 nM | TGI (SF-539 CNS): 4850 nM | GI50 (HL-60(TB) leukemia): 200 nM | TGI (HL-60(TB) leukemia): 1970 nM | GI50 (SK-OV-3 ovarian): 351 nM | TGI (SK-OV-3 ovarian): 2090 nM | GI50 (A498 renal): 295 nM | TGI (A498 renal): 1280 nM | GI50 (A549 NSCLC): 724 nM | TGI (A549 NSCLC): 9920 nM | GI50 (786-0 renal): 1580 nM | TGI (786-0 renal): 9350 nM | GI50 (UACC-257 melanoma): 38.9 nM | TGI (UACC-257 melanoma): 395 nM | GI50 (RXF 393 renal): 748 nM | TGI (RXF 393 renal): 2770 nM | GI50 (HOP-92 NSCLC): 74.5 nM | TGI (HOP-92 NSCLC): 488 nM | GI50 (SR leukemia): 2630 nM | TGI (SR leukemia): 19600 nM | GI50 (IGROV1 ovarian): 84.2 nM | TGI (IGROV1 ovarian): 1960 nM | GI50 (K-562 leukemia): 432 nM | TGI (K-562 leukemia): > 36300 nM | GI50 (ACHN renal): 260 nM | TGI (ACHN renal): 10500 nM
